# Experimental data published in ChEMBL document CHEMBL1144575, “Design and synthesis of 3,5-disubstituted benzamide analogues of DNK333 as dual NK1/NK2 receptor probes” (Bioorg Med Chem Lett, 2007).
# The source made the active and inactive calls. No cut-off for these calls is given here.
# Tests used:
# Format in all cases: functional, tissue-based
# [1] = target: Substance-P receptor (Cavia porcellus) (UniProt P30547); experiment: Antagonist activity at NK1 receptor in guinea pig trachea as inhibition of ASM-SP-induced bronchoconstriction up to 1 uM
# Substance-P receptor (Cavia porcellus), sequence (P30547 whole entry): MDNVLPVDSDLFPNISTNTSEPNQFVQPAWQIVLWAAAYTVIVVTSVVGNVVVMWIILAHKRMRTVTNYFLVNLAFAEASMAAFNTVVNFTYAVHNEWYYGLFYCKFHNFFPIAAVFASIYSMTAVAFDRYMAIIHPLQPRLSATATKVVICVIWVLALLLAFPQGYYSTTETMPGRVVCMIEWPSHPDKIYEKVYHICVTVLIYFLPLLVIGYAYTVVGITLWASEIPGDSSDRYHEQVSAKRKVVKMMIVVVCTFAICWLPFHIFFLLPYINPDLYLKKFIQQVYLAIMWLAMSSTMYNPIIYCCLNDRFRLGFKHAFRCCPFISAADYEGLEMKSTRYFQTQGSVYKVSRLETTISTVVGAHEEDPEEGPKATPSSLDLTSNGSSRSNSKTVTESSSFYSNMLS
# [2] = target: T1, Substance-K receptor (Cavia porcellus) (UniProt Q64077); experiment: Antagonist activity at NK2 receptor in guinea pig trachea as inhibition of [beta-Ala8]NKA(4-10)-induced bronchoconstriction up to 1 uM
# T1 sequence (whole entry): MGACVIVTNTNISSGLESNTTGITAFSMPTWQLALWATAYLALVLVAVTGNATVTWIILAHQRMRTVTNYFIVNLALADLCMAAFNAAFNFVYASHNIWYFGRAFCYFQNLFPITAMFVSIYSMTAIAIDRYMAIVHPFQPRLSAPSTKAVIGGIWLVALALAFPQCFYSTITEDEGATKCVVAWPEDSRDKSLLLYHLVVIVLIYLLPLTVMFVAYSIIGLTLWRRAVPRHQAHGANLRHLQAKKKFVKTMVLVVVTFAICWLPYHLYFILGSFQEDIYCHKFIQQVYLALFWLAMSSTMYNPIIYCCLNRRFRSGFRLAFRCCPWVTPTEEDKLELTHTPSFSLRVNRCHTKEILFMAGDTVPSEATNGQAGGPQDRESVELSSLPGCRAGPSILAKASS
# [3] = target: T1, Substance-K receptor (Cavia porcellus); experiment: Antagonist activity at NK2 receptor in guinea pig trachea as inhibition of [beta-Ala8]NKA(4-10)-induced bronchoconstriction relative to control; parameters: scale not given: the % may be the effect or the level left
# [4] = target: T1, Substance-K receptor (Cavia porcellus); experiment: Antagonist activity at NK2 receptor in guinea pig trachea as inhibition of [beta-Ala8]NKA(4-10)-induced bronchoconstriction
# [5] = target: Substance-P receptor (Cavia porcellus) (UniProt P30547); experiment: Antagonist activity at NK1 receptor in guinea pig trachea as inhibition of ASM-SP-induced bronchoconstriction relative to control; parameters: scale not given: the % may be the effect or the level left
# [6] = target: Substance-P receptor (Cavia porcellus) (UniProt P30547); experiment: Antagonist activity at NK1 receptor in guinea pig trachea as inhibition of ASM-SP-induced bronchoconstriction
Activity [1],Activity [2],Activity [3] [%],pKb [4],Activity [5] [%],pKb [6],Structure (SMILES)
inactive,inactive,–,–,–,–,COC(=S)Nc1cc(NC(=S)OC)cc(C(=O)N(C)[C@@H](/C=C/C(=O)N[C@@H]2CCCCNC2=O)Cc2ccc(Cl)c(Cl)c2)c1
inactive,inactive,–,–,–,–,CC(=O)Nc1cc(NC(C)=O)cc(C(=O)N(C)[C@@H](/C=C/C(=O)N[C@@H]2CCCCNC2=O)Cc2ccc(Cl)c(Cl)c2)c1
inactive,inactive,–,–,–,–,CN(C(=O)c1cc(N=C=S)cc(N=C=S)c1)[C@@H](/C=C/C(=O)N[C@@H]1CCCCNC1=O)Cc1ccc(Cl)c(Cl)c1
inactive,inactive,–,–,–,–,CN(C(=O)c1cc(N)cc(N)c1)[C@@H](/C=C/C(=O)N[C@@H]1CCCCNC1=O)Cc1ccc(Cl)c(Cl)c1

# Further lines, the molecule ahead of its results:
Structure (SMILES),Activity [1],Activity [2],Activity [3] [%],pKb [4],Activity [5] [%],pKb [6]
CN(C(=O)c1cc(C(F)(F)F)cc(C(F)(F)F)c1)[C@@H](/C=C/C(=O)N[C@@H]1CCCCNC1=O)Cc1ccc(Cl)c(Cl)c1,–,–,97,7.43,89.4,9.2
CN(C(=O)c1cc([N+](=O)[O-])cc([N+](=O)[O-])c1)[C@@H](/C=C/C(=O)N[C@@H]1CCCCNC1=O)Cc1ccc(Cl)c(Cl)c1,–,–,96.1,7.87,96.1,8.4
CN(C(=O)c1cc(NC(=O)CBr)cc(NC(=O)CBr)c1)[C@@H](/C=C/C(=O)N[C@@H]1CCCCNC1=O)Cc1ccc(Cl)c(Cl)c1,inactive,inactive,–,–,–,–
